According to ChEMBL document CHEMBL3091398, “Anthranilic acid-based Thumb Pocket 2 HCV NS5B polymerase inhibitors with sub-micromolar potency in the cell-based replicon assay” (Bioorg Med Chem Lett, 2013):

Tested on: not listed separately
Test: Dissociation constant, pKa of the compound
Assay type: physicochemical
Settings: not given
Work on `CC(C)N(c1ccc(Oc2ccccc2C(F)(F)F)cc1C(=O)O)C(=O)[C@H]1CC[C@H](C)CC1` yielded a pKa of 5.5.

Tested on: not listed separately
Test: Half life in rat liver microsomes at 2 uM
Assay type: ADME
Settings: not given
For `CC(C)N(c1ccc(Oc2ccccc2C(F)(F)F)cc1C(=O)O)C(=O)[C@H]1CC[C@H](C)CC1`, the half-life at 2 µM was 1.3 h. For `CC(C)N(c1ccc(Oc2ncccc2C(F)(F)F)cc1C(=O)O)C(=O)[C@H]1CC[C@H](C)CC1`, the half-life at 2 µM was 1 h.

Tested on: not listed separately
Test: Half life in human liver microsomes at 2 uM
Assay type: ADME
Settings: not given
In the case of `CC(C)N(c1ccc(Oc2ncccc2C(F)(F)F)cc1C(=O)O)C(=O)[C@H]1CC[C@H](C)CC1`, the half-life at 2 µM is reported as 1.15 h. `Cc1ccc(S(=O)(=O)Nc2ccc(Oc3ccccc3C(F)(F)F)cc2C(=O)O)cc1` showed a half-life at 2 µM of 0.2 h.

Tested on: not listed separately
Test: Permeability across apical to basolateral side in human Caco2 cells
Assay type: ADME, cell-based
Settings: Caco-2, read-out: permeability
`CC(C)N(c1ccc(Oc2ccccc2C(F)(F)F)cc1C(=O)O)C(=O)[C@H]1CC[C@H](C)CC1` gave a Papp A→B of 15 ×10⁻⁶ cm/s. For `Cc1ccc(S(=O)(=O)Nc2ccc(Oc3ccccc3C(F)(F)F)cc2C(=O)O)cc1`, the Papp A→B was 3.6 ×10⁻⁶ cm/s.

Tested on: not listed separately
Test: Solubility of the compound at pH 2 after 24 hrs by shake-flask method
Assay type: physicochemical
Settings: buffer, pH 2, 24 h
For `CC(C)N(c1ccc(Oc2ccccc2C(F)(F)F)cc1C(=O)O)C(=O)[C@H]1CC[C@H](C)CC1`, the solubility was less than 0.1 µg/mL. `CC(C)N(c1ccc(Oc2ncccc2C(F)(F)F)cc1C(=O)O)C(=O)[C@H]1CC[C@H](C)CC1` gave a solubility of less than 0.1 µg/mL.

Tested on: not listed separately
Test: Lipophilicity, log D of the compound at pH 7.4
Assay type: physicochemical
Settings: buffer
With `CC(C)N(c1ccc(Oc2ccccc2C(F)(F)F)cc1C(=O)O)C(=O)[C@H]1CC[C@H](C)CC1` the logD was 2.9.

Tested on: Hepatitis C virus
Test: Antiviral activity against HCV genotype 1b by cell-based luciferase reporter gene assay
Assay type: functional, organism-based, Hepacivirus hominis
Settings: not given
With `O=C(O)c1cc(Oc2ccccc2)ccc1NS(=O)(=O)c1ccc(Br)cc1F` the EC50 was greater than 30000 nM. `Cc1ccc(S(=O)(=O)Nc2cc(Oc3ccccc3)ccc2C(=O)O)cc1` gave an EC50 greater than 30000 nM. `O=C(O)c1ccc(Oc2ccccc2)cc1NS(=O)(=O)c1ccc(Br)cc1F` gave an EC50 greater than 30000 nM. `O=C(O)c1ccc(Oc2ccccc2)cc1NS(=O)(=O)c1ccc(Br)s1` showed an EC50 greater than 25000 nM. Compound `Cc1ccc(S(=O)(=O)Nc2ccc(Oc3ccccc3)cc2C(=O)O)cc1` has an EC50 greater than 30000 nM. For `CC(C)N(c1cc(Oc2ccccc2C(F)(F)F)ccc1C(=O)O)C(=O)[C@H]1CC[C@H](C)CC1`, the EC50 was 4500 nM. Compound `Cc1ccc(S(=O)(=O)Nc2ccc(OC3CCCC3)cc2C(=O)O)cc1` has an EC50 of 8600 nM. `O=C(O)c1ccc(Oc2ccccc2C(F)(F)F)cc1NS(=O)(=O)c1ccc(Br)s1` showed an EC50 greater than 30000 nM. `CC(C)N(C(=O)c1ccc(Br)cc1F)c1ccc(Oc2ccccc2)cc1C(=O)O` showed an EC50 greater than 10000 nM. For `CC(C)N(c1ccc(Oc2ccccc2)cc1C(=O)O)C(=O)[C@H]1CC[C@H](C)CC1`, the EC50 was 5000 nM. With `CC[C@H]1CC[C@H](C(=O)N(c2ccc(Oc3ccccc3)cc2C(=O)O)C(C)C)CC1` the EC50 was 25000 nM. Compound `CC(C)N(c1ccc(Oc2ccccc2)cc1C(=O)O)C(=O)[C@H]1CC[C@H](C(F)(F)F)CC1` has an EC50 of 16000 nM. Compound `CC(C)N(C(=O)c1ccc(Br)cc1F)c1cc(Oc2ccccc2)ccc1C(=O)O` has an EC50 greater than 10000 nM. In the case of `CC(C)N(c1cc(Oc2ccccc2)ccc1C(=O)O)C(=O)[C@H]1CC[C@H](C)CC1`, the EC50 is reported as 11000 nM. Work on `CC[C@H]1CC[C@H](C(=O)N(c2cc(Oc3ccccc3)ccc2C(=O)O)C(C)C)CC1` yielded an EC50 greater than 40000 nM. `CC(C)N(c1cc(Oc2ccccc2)ccc1C(=O)O)C(=O)[C@H]1CC[C@H](C(F)(F)F)CC1` showed an EC50 of 16000 nM. `CC(C)N(c1ccc(OC2CCCC2)cc1C(=O)O)C(=O)[C@H]1CC[C@H](C)CC1` gave an EC50 of 1000 nM. With `CC(C)N(c1ccc(Oc2cccc(C(F)(F)F)c2)cc1C(=O)O)C(=O)[C@H]1CC[C@H](C)CC1` the EC50 was 6300 nM. `CC(C)N(c1ccc(Oc2ccccc2OC(F)(F)F)cc1C(=O)O)C(=O)[C@H]1CC[C@H](C)CC1` showed an EC50 of 2800 nM. `CC(C)N(c1ccc(Oc2ccccc2Br)cc1C(=O)O)C(=O)[C@H]1CC[C@H](C)CC1` gave an EC50 of 4900 nM. Compound `CC(C)N(c1ccc(Oc2ccccc2C2CC2)cc1C(=O)O)C(=O)[C@H]1CC[C@H](C)CC1` has an EC50 of 4300 nM. In the case of `CC(C)N(c1ccc(Oc2ccccc2C(C)(F)F)cc1C(=O)O)C(=O)[C@H]1CC[C@H](C)CC1`, the EC50 is reported as 620 nM. In the case of `CC(C)N(c1ccc(Oc2ccccc2C(F)F)cc1C(=O)O)C(=O)[C@H]1CC[C@H](C)CC1`, the EC50 is reported as 1100 nM. In the case of `CC(C)N(c1ccc(Oc2ccncc2C(F)(F)F)cc1C(=O)O)C(=O)[C@H]1CC[C@H](C)CC1`, the EC50 is reported as 170 nM. For `CC(C)N(c1cc(OC2CCCC2)ccc1C(=O)O)C(=O)[C@H]1CC[C@H](C)CC1`, the EC50 was greater than 50000 nM. For `Cc1ccc(Oc2ccc(NS(=O)(=O)c3ccc(C)cc3)c(C(=O)O)c2)cc1`, the EC50 was greater than 30000 nM. Work on `Cc1ccc(S(=O)(=O)Nc2ccc(Oc3cccc(C)c3)cc2C(=O)O)cc1` yielded an EC50 greater than 30000 nM. Compound `Cc1ccc(S(=O)(=O)Nc2ccc(Oc3ccccc3C)cc2C(=O)O)cc1` has an EC50 greater than 30000 nM. In the case of `CC(=O)Nc1ccc(Oc2ccc(NS(=O)(=O)c3ccc(C)cc3)c(C(=O)O)c2)cc1`, the EC50 is reported as 30000 nM. With `Cc1ccc(S(=O)(=O)Nc2ccc(Oc3cccc(C(=O)O)c3)cc2C(=O)O)cc1` the EC50 was greater than 30000 nM. `Cc1ccc(S(=O)(=O)Nc2ccc(Oc3ccc(C(=O)O)cc3)cc2C(=O)O)cc1` showed an EC50 greater than 30000 nM. In the case of `Cc1ccc(S(=O)(=O)Nc2ccc(Oc3ccccc3C(F)(F)F)cc2C(=O)O)cc1`, the EC50 is reported as 7300 nM. In the case of `Cc1ccc(S(=O)(=O)Nc2ccc(Oc3ccccc3OC(F)(F)F)cc2C(=O)O)cc1`, the EC50 is reported as 7000 nM.

Target: not listed separately
Test: Inhibition of HCV genotype 1b NS5B delta21 polymerase
Design: species or system Hepatitis C virus subtype 1b
Settings: not given
Work on `O=C(O)c1cc(Oc2ccccc2)ccc1NS(=O)(=O)c1ccc(Br)cc1F` yielded an IC50 of 340 nM. Work on `Cc1ccc(S(=O)(=O)Nc2cc(Oc3ccccc3)ccc2C(=O)O)cc1` yielded an IC50 of 160 nM. With `O=C(O)c1ccc(Oc2ccccc2)cc1NS(=O)(=O)c1ccc(Br)cc1F` the IC50 was 310 nM. `O=C(O)c1ccc(Oc2ccccc2)cc1NS(=O)(=O)c1ccc(Br)s1` gave an IC50 of 610 nM. Work on `Cc1ccc(S(=O)(=O)Nc2ccc(Oc3ccccc3)cc2C(=O)O)cc1` yielded an IC50 of 220 nM. Work on `CC(C)N(c1ccc(Oc2ccccc2C(F)(F)F)cc1C(=O)O)C(=O)[C@H]1CC[C@H](C)CC1` yielded an IC50 of 190 nM. In the case of `CC(C)N(c1ccc(Oc2ncccc2C(F)(F)F)cc1C(=O)O)C(=O)[C@H]1CC[C@H](C)CC1`, the IC50 is reported as 80 nM. `CC(C)N(c1cc(Oc2ccccc2C(F)(F)F)ccc1C(=O)O)C(=O)[C@H]1CC[C@H](C)CC1` showed an IC50 of 1300 nM. `Cc1ccc(S(=O)(=O)Nc2ccc(OC3CCCC3)cc2C(=O)O)cc1` gave an IC50 of 210 nM. `Cc1ccc(Oc2ccc(C(=O)O)c(NS(=O)(=O)c3ccc(Br)s3)c2)cc1` gave an IC50 of 1900 nM. `Cc1cccc(Oc2ccc(C(=O)O)c(NS(=O)(=O)c3ccc(Br)s3)c2)c1` gave an IC50 of 1100 nM. `Cc1ccccc1Oc1ccc(C(=O)O)c(NS(=O)(=O)c2ccc(Br)s2)c1` showed an IC50 of 1500 nM. For `CC(=O)Nc1ccc(Oc2ccc(C(=O)O)c(NS(=O)(=O)c3ccc(Br)s3)c2)cc1`, the IC50 was 2900 nM. With `O=C(O)c1cccc(Oc2ccc(C(=O)O)c(NS(=O)(=O)c3ccc(Br)s3)c2)c1` the IC50 was 1400 nM. In the case of `O=C(O)c1ccc(Oc2ccc(C(=O)O)c(NS(=O)(=O)c3ccc(Br)s3)c2)cc1`, the IC50 is reported as 2200 nM. In the case of `O=C(O)c1ccc(Oc2ccccc2C(F)(F)F)cc1NS(=O)(=O)c1ccc(Br)s1`, the IC50 is reported as 3000 nM. Work on `CC(C)N(C(=O)c1ccc(Br)cc1F)c1ccc(Oc2ccccc2)cc1C(=O)O` yielded an IC50 of 1640 nM. Compound `CC(C)N(c1ccc(Oc2ccccc2)cc1C(=O)O)C(=O)[C@H]1CC[C@H](C)CC1` has an IC50 of 670 nM. In the case of `CC[C@H]1CC[C@H](C(=O)N(c2ccc(Oc3ccccc3)cc2C(=O)O)C(C)C)CC1`, the IC50 is reported as 1300 nM. In the case of `CC(C)N(c1ccc(Oc2ccccc2)cc1C(=O)O)C(=O)[C@H]1CC[C@H](C(F)(F)F)CC1`, the IC50 is reported as 2000 nM. With `CC(C)N(C(=O)c1ccc(Br)cc1F)c1cc(Oc2ccccc2)ccc1C(=O)O` the IC50 was 1400 nM. `CC(C)N(c1cc(Oc2ccccc2)ccc1C(=O)O)C(=O)[C@H]1CC[C@H](C)CC1` gave an IC50 of 740 nM. `CC[C@H]1CC[C@H](C(=O)N(c2cc(Oc3ccccc3)ccc2C(=O)O)C(C)C)CC1` showed an IC50 of 4300 nM. `CC(C)N(c1cc(Oc2ccccc2)ccc1C(=O)O)C(=O)[C@H]1CC[C@H](C(F)(F)F)CC1` gave an IC50 of 1300 nM. `CC(C)N(c1ccc(OC2CCCC2)cc1C(=O)O)C(=O)[C@H]1CC[C@H](C)CC1` showed an IC50 of 460 nM. `CC(C)N(c1ccc(Oc2cccc(C(F)(F)F)c2)cc1C(=O)O)C(=O)[C@H]1CC[C@H](C)CC1` gave an IC50 of 470 nM. `CC(C)N(c1ccc(Oc2ccccc2OC(F)(F)F)cc1C(=O)O)C(=O)[C@H]1CC[C@H](C)CC1` showed an IC50 of 740 nM. `CC(C)N(c1ccc(Oc2ccccc2Br)cc1C(=O)O)C(=O)[C@H]1CC[C@H](C)CC1` showed an IC50 of 450 nM. For `CC(C)N(c1ccc(Oc2ccccc2C2CC2)cc1C(=O)O)C(=O)[C@H]1CC[C@H](C)CC1`, the IC50 was 330 nM. In the case of `CC(C)N(c1ccc(Oc2ccccc2C(C)(F)F)cc1C(=O)O)C(=O)[C@H]1CC[C@H](C)CC1`, the IC50 is reported as 300 nM. In the case of `CC(C)N(c1ccc(Oc2ccccc2C(F)F)cc1C(=O)O)C(=O)[C@H]1CC[C@H](C)CC1`, the IC50 is reported as 200 nM. In the case of `CC(C)N(c1ccc(Oc2ccncc2C(F)(F)F)cc1C(=O)O)C(=O)[C@H]1CC[C@H](C)CC1`, the IC50 is reported as 190 nM. For `CC(C)N(c1cc(OC2CCCC2)ccc1C(=O)O)C(=O)[C@H]1CC[C@H](C)CC1`, the IC50 was greater than 40000 nM. Work on `Cc1ccc(Oc2ccc(NS(=O)(=O)c3ccc(C)cc3)c(C(=O)O)c2)cc1` yielded an IC50 of 780 nM. For `Cc1ccc(S(=O)(=O)Nc2ccc(Oc3cccc(C)c3)cc2C(=O)O)cc1`, the IC50 was 470 nM. `Cc1ccc(S(=O)(=O)Nc2ccc(Oc3ccccc3C)cc2C(=O)O)cc1` gave an IC50 of 530 nM. Work on `CC(=O)Nc1ccc(Oc2ccc(NS(=O)(=O)c3ccc(C)cc3)c(C(=O)O)c2)cc1` yielded an IC50 of 290 nM. `Cc1ccc(S(=O)(=O)Nc2ccc(Oc3cccc(C(=O)O)c3)cc2C(=O)O)cc1` showed an IC50 of 330 nM. `Cc1ccc(S(=O)(=O)Nc2ccc(Oc3ccc(C(=O)O)cc3)cc2C(=O)O)cc1` gave an IC50 of 85 nM. For `Cc1ccc(S(=O)(=O)Nc2ccc(Oc3ccccc3C(F)(F)F)cc2C(=O)O)cc1`, the IC50 was 270 nM. With `Cc1ccc(S(=O)(=O)Nc2ccc(Oc3ccccc3OC(F)(F)F)cc2C(=O)O)cc1` the IC50 was 370 nM.
